# PMC7614683, “A small molecule PI3Kα activator for cardioprotection and neuroregeneration” (Nature, 2023)
# Legend:
# PI3Kα-KO A549 cells = experiment: TIRF microscopy of PIP3 reporter, PI3Kα-KO A549; format: cell-based, human
# From the text: Generation of pooled PIK3CA-null A549 cells was outsourced to Synthego Corporation. Briefly, the PIK3CA gene was targeted with synthetic ribonucleoprotein (RNP) complexes including the following single guide RNA (sgRNA) sequence: 5’-[…]-3’. This sequence is located within PIK3CA exon 3 and covers the coding sequence preceding the p110α RAS binding domain, with the Cas9 cut site corresponding to amino acids 156/157 of p110α). In parallel, control cultures were exposed to the Cas9 protein without sgRNA, henceforth referred to as “WT cultures”. Single-cell clones were established from both WT and targeted cultures by limiting dilution, thereby ensuring seeding of maximum 1 cell per well of a 96-well plate. To promote recovery, subcloned cells in 96-wells were cultured in a 1:1 mixture of standard A549 complete medium and conditioned medium. Conditioned medium was prepared from WT cultures 2 days post-passaging by centrifuging the medium at 1000g for 10 min, followed by 0.22 μm PES filtration and storage at 4°C (-80°C for storage exceeding 2 weeks). The medium was replenished every 2-3 days, as gently as possible to prevent cells from dislodging. Once cells reached sub-confluence, they were expanded to 24-well plates and 25 cm[2] flasks, followed by genotyping and cell banking. […]
# PI3Kα = biological target: T1, PI3Kα (Homo sapiens, UniProt P42336); experiment: FRET membrane binding assay; format: biochemical; details: compared with pY
# T1 construct: Full-length human p110α was expressed either in a complex with full-length human p85α (for HTS, biochemistry and HDX-MS); 6xHis tag followed by TEV protease site (N); host or cells: Spodoptera frugiperda Sf9, baculovirus
# Experimental: Membrane binding assays were performed as previously published. Briefly, liposomes were prepared with 5% (w/v) brain PtdIns(4,5)P2, 20% brain phosphatidylserine, 35% brain phosphatidylethanolamine, 15% brain phosphatidylcholine, 10% cholesterol, 5% sphingomyelin, and 10% dansyl-phosphatidylserine (Avanti Polar Lipids). PI3Kα was used at a final concentration of 0.5 μM. Protein solutions were preincubated with 10 μM pY or compounds for 10 min before addition of liposomes. Liposomes were used at a final concentration of 50 μg/ml. The reaction mixture contained 5 μl enzyme, 2 μl compound and 3 μl liposomes, all diluted in 30 mM HEPES, 50 mM NaCl, pH 7.4. The reaction was allowed to proceed for 10 min at room temperature with 384 black-polystyrene plates (Corning #3544) on an orbital shaker at 200 rpm. FRET signals were measured using PHERAStar (BMG) with a 280 nm excitation filter with 350 nm and 520 nm emission filters to measure Dansyl-PS FRET emissions, respectively. FRET signal shown as I-I0, where I is the intensity at 520 nm, and I0 is the intensity at 520 nm for the solution in the absence of protein.
# T1 sequence (P42336 whole entry): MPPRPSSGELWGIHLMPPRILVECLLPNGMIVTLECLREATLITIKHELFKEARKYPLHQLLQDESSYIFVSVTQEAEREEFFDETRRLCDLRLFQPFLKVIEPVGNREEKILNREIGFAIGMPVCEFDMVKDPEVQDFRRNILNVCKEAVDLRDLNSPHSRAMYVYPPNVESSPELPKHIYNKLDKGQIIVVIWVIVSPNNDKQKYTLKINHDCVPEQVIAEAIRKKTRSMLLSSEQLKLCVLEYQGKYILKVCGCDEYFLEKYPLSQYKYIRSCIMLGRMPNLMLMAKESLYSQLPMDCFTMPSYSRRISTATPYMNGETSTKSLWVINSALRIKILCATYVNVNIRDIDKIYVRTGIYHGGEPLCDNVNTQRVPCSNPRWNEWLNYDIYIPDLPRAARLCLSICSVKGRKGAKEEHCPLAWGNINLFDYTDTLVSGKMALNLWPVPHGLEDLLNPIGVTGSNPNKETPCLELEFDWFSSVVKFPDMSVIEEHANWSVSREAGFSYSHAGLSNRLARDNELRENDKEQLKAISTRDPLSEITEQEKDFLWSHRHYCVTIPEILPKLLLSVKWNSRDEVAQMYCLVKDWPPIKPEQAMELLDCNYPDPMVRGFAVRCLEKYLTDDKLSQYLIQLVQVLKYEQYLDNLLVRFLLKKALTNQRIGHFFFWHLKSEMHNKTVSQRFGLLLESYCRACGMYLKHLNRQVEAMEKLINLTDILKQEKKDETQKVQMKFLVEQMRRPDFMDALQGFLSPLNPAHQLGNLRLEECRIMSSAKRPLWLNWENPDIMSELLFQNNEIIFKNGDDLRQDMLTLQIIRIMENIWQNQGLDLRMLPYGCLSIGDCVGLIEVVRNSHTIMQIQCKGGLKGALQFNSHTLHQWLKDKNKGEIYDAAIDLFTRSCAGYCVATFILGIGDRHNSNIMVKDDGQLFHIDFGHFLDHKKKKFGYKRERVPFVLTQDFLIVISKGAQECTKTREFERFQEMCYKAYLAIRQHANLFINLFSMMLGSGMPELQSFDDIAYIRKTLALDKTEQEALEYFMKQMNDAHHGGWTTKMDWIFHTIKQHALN
# T1 sequence (P27986 whole entry partner): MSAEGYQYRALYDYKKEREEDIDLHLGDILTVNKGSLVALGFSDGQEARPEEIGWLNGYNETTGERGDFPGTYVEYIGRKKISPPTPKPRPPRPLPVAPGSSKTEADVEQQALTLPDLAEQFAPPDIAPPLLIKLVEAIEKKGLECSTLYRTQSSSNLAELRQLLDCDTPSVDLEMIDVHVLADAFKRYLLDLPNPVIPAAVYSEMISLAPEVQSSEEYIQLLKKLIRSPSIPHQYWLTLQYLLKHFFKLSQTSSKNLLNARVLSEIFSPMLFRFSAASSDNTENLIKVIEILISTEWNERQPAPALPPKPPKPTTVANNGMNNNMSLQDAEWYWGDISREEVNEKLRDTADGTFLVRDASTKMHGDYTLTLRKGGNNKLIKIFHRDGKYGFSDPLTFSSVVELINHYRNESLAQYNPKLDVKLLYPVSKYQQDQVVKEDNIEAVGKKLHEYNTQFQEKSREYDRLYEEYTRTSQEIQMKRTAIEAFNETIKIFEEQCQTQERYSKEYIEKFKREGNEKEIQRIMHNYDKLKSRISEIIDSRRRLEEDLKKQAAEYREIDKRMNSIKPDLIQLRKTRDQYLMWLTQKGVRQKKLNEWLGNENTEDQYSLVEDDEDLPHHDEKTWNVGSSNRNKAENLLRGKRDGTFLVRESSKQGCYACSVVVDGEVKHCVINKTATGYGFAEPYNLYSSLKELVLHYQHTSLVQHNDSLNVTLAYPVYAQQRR
structure (smiles),measurement,setting,value
CCN1CCN(c2ccc(Nc3cc(Nc4cccc5c4N(C(C)=O)CC5)ccn3)cc2)CC1 [Compound 1938],plasma membrane PIP3 (biosensor),PI3Kα-KO A549 cells,not seen
same,"PI3Kα binding to lipid membranes (FRET signal), maximum level",PI3Kα,about half of that induced by pY
